According to PMC8156206, “Novel N,N′-Disubstituted Selenoureas as Potential Antioxidant and Cytotoxic Agents” (Antioxidants, 2021):

Columns and labels:
HCT-116 cells (colon) = assay: MTT cell viability assay, HCT-116; format: cell-based; conditions: Homo sapiens, HCT-116; 48 h, MTT, mean ± SD; read-out: IC50 HCT-116 (colon)
Method: (§1) Cell lines were purchased from the American Type Culture Collection (ATCC). MCF-7, HTB-54, BEAS-2B and 184B5 cell lines were grown in RPMI 1640 medium (Gibco) supplemented with 10% fetal bovine serum (FBS; Gibco), 100 units/mL penicillin, and […] streptomycin (Gibco). HT-29 and HCT-116 cell lines was cultured in McCoy’s 5A (Gibco), 10% FBS, 100 units/mL penicillin, and 100 μg/mL streptomycin. Cells were maintained at 37 °C and 5% CO2. Culture medium was replaced every three days.
(§2) A cell viability assay of each compound was carried out using an MTT assay. Each selenourea was dissolved in dimethyl sulfoxide (DMSO) at a concentration of 0.01 M. Serial dilutions were prepared with non-supplemented culture medium. Cytotoxic activity of each selenourea was determined at two different concentrations (10 and 50 µM) in MCF-7, HTB-54, and HT-29 cells. In addition, selected compounds were tested at seven different concentrations (0.1, 1, 5, 10, 25, 50, 100 µM) on MCF-7, HT-29, HCT-116, HTB-54, 184B5, and BEAS-2B cells. The number of passages before defrosting the cells was 3, and they were kept under culture up to a maximum of 15.
(§3) Briefly, 1 × 10^4 cells/well were grown in 96-well plates for 24 h. Then, these cells were incubated with either DMSO (negative control) at 5 µM or a different concentration of each tested selenourea for 48 h. A volume of 20 µL of MTT was added 150 min before the termination point to measure cellular viability. After this time, culture medium was removed. The resultant formazan crystals were dissolved in 50 µL of DMSO, and absorbance was measured at 570 nm. Results are expressed as IC50, the half maximal inhibitory concentration. This value was calculated using GraphPad Prism 7 software by nonlinear curve fitting. Furthermore, the selectivity index (SI) was calculated as the ratio of the IC50 values determined for the non-malignant and the tumoral cells (IC50 (184B5)/IC50 (MCF-7) or (IC50 (BEAS-2B)/IC50 (HTB-54). Data were obtained from at least three independent experiments performed in triplicates.

SK-MEL-5 (melanoma) = assay: cells; format: cell-based
Description: (§4) The dose–response was also studied in the same 60 cancer cell lines, with outstanding results. […] Table 2 summarizes the GI50, TGI, and LC50 values of representative cell lines. Full data mean GI50 graphs are provided in the Supplementary Materials.

HCT-116 (colon cancer) = assay: cells; format: cell-based
Description: as §4

BT-549 (breast cancer) = assay: cells; format: cell-based
Description: as §4

COLO-205 (colon cancer) = assay: cells; format: cell-based
Description: as §4

[1] = test system: MCF-7, HTB-54, HT-29 and HCT-116 cancer cell lines; assay: MTT assay, panel of four cancer cell lines; format: cell-based; conditions: MCF-7, HTB-54, HT-29, HCT-116, read-out: IC50 against the four cancer cell lines tested (all the cell lines)
Method: as §2, §3
Those derivatives that reduced the growth of the cell lines below 50% at 10 µM in at least one cell line were selected for being evaluated at five concentrations between […] and 100 µM. Ten compounds (1d, 1e, 2a, 2d, 3a, 6a, 6b, 6c, 6d, and 6e) passed this threshold and four of them (1e, 6c, 6d and 6e) in all three cancer cell lines. The data are expressed as IC50 (mean ± SD) in a panel of four cancer cell lines (MCF-7, HTB-54, HT-29, and HCT-116), and are shown in Table 1. Cisplatin was used as a standard drug. […] Additionally, reported IC50 values of a well-known antitumor selenocompound, i.e., sodium selenite (Na2SeO3), were used as reference for comparision with the selected selenoureas.

[2] = test system: 184B5 cells (breast non-malignant derived cell line); assay: MTT cell viability assay, 184B5; format: cell-based; conditions: Homo sapiens, 184B5; 48 h, MTT, mean ± SD; read-out: IC50 184B5 (breast, non-malignant)
Method: as §1, §2, §3

[3] = test system: HTB-54 cells (lung adenocarcinoma); assay: MTT cell viability assay, HTB-54; format: cell-based, human
Method in brief: (§5)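 Cells at 1 × 10^4/well grown 24 h, then treated 48 h with selenourea at 10 and 50 µM (selected compounds 0.1–100 µM), DMSO as negative control. MTT added 150 min before end, formazan read at 570 nm; IC50 by nonlinear fit, ≥3 independent experiments in triplicate.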

HT-29 cells = assay: Cell cycle progression, propidium iodide flow cytometry; format: cell-based, human; conditions: HT-29, 48 h, 0.1, 1, 5 and 10 µM
Method: 6 × 10^5 cells/well were grown in 6-well plates for 24 h. Cultures were treated with the corresponding amount of the selected compounds, DMSO (control), or 10 μM camptothecin (positive control). Propidium iodide (PI) was used as DNA stain dye to determine cell cycle distribution. Cells were stored at −20 °C with 70% ethanol for at least 24 h. Then, ethanol was removed, cells were washed with PBS, and stained for 30 min with 500 µL of a solution containing 0.001% triton, 0.2% w/v RNase, and 0.02% PI.
To gain further knowledge about the mechanism of action of 6c, we investigated the effect of this compound on cell cycle progression using flow cytometry analysis, with propidium iodide as a DNA staining agent. We analyzed the effect at 48 h treatment with four different concentrations (0.1, 1, 5, and 10 µM) of compound 6c on HT-29 cells. Camptothecin (10 μM) was used as a positive control. […] The cell cycle modulation of 6c is very similar to camptothecin, the reference compound used in the study.

[4] = test system: MCF-7 cells (breast adenocarcinoma); assay: MTT cell viability assay, MCF-7; format: cell-based, human
Method in brief: as §5

COc1ccc(NC(=[Se])NC23CC4CC(CC(C4)C2)C3)cc1 [Compound 6c, N´-adamantyl-N-(4-methoxyphenyl)selenourea] showed an IC50 (HCT-116 cells (colon)) of 3.6 ± 0.74 µM, a CC50 (SK-MEL-5 (melanoma); Homo sapiens, SK-MEL-5, read-out: LC50) of 4.27 µM and a GI50 (SK-MEL-5 (melanoma); Homo sapiens, SK-MEL-5, NCI-60) of 0.56 µM. The TGI (SK-MEL-5 (melanoma); SK-MEL-5, NCI-60) was 1.78 µM, the TGI (HCT-116 (colon cancer); HCT-116, NCI-60) was 2.75 µM and the CC50 (HCT-116 (colon cancer); Homo sapiens, HCT-116, read-out: LC50) was 6.03 µM. It also gave a GI50 (HCT-116 (colon cancer); Homo sapiens, HCT-116, NCI-60) of 1.29 µM, a TGI (BT-549 (breast cancer); BT-549, NCI-60) of 2.29 µM and a CC50 (BT-549 (breast cancer); Homo sapiens, BT-549, read-out: LC50) of 5.62 µM. It also gave a GI50 (BT-549 (breast cancer); Homo sapiens, BT-549, NCI-60) of 0.87 µM, a TGI (COLO-205 (colon cancer); COLO-205, NCI-60) of 3.98 µM and a CC50 (COLO-205 (colon cancer); Homo sapiens, COLO 205, read-out: LC50) of 9.33 µM. The GI50 (COLO-205 (colon cancer); Homo sapiens, COLO-205, NCI-60) was 1.66 µM, the IC50 [1] was less than 10 µM and the IC50 [2] was 7.23 ± 2.28 µM. It also gave an IC50 ([3]; Homo sapiens, HTB-54, 48 h, MTT, mean ± SD, read-out: IC50 HTB-54 (lung)) of 5.09 ± 0.28 µM, a viability at 10 µM ([3]; Homo sapiens, HTB-54, 10 µM, 48 h, MTT, read-out: cell viability, percentage of live cells) of 33.1% and a viability at 50 µM ([3]; Homo sapiens, HTB-54, 50 µM, 48 h, MTT, read-out: cell viability, percentage of live cells) of 30.9%. The “SI (selectivity index) lung” value ([3]; IC50 (BEAS-2B)/IC50 (HTB-54)) was 0.93, the cell cycle modulation (HT-29 cells) was “cell cycle arrest at the S phase in a concentration-dependent manner” and the IC50 ([4]; Homo sapiens, MCF7, 48 h, MTT, mean ± SD, read-out: IC50 MCF-7 (breast)) was 4.94 ± 1.99 µM. The viability at 10 µM ([4]; Homo sapiens, MCF7, MCF-7, 10 µM, 48 h, MTT, read-out: cell viability, percentage of live cells) was 37.9%, the viability at 50 µM ([4]; Homo sapiens, MCF7, MCF-7, 50 µM, 48 h, MTT, read-out: cell viability, percentage of live cells) was 9.2% and the “SI (selectivity index) breast” value ([4]; IC50 (184B5)/IC50 (MCF-7)) was 1.46.
